What is called melting point is the temperature, or range, at which the solid turns liquid.

In turn, `COC(COc1cc(-n2ncc(C(F)(F)F)c(C)c2=O)c(F)cc1Cl)OC` returned a melting point of 86 °C.

Regarding `CCN(CC)C(=O)COC(=O)c1cccc(NC(=O)C(CSC(C)=O)Cc2ccccc2)c1` (stereo not drawn), the melting point is 143 to 144 °C.

Consider `O=C(O)C1=Cc2c(Cl)ccc(Cl)c2OC1C(F)(F)F` (stereo not drawn), for which the melting point fell in the range of 206 to 207 °C.

`CC1(C)SC(=O)C2OC=CC=C21` (stereo not drawn) gave a melting point of 42 °C.

Take `Fc1ccccc1C1=NCc2ccccc2-c2ccc(Br)cc21`: the melting point lay in the range of 104 to 105 °C.

Consider `Fc1ccc(CNc2nc(OCc3ccccc3)nc(OCC(F)(F)F)n2)cc1`, for which the melting point lay in the range of 101 to 103 °C.

With `CN(C)C(=O)c1c2ccc(Cl)cc2c(-c2ccccc2)n1C`, the melting point lay within 86 to 88 °C.

For the molecule `CCN1C(=O)C(C)(C)C(=O)N(C)c2cc(CN(CCn3ccc4oc(C)cc4c3=O)Cc3nc(C)n4ccccc34)ccc21`, the melting point was 104 to 109 °C.

For `Cn1c(CO)nnc1NCCCOc1cccc(CN2CCCCC2)c1`, the melting point was 151 to 152 °C.

`COC(=O)COc1cc(C)nc(NC(=O)NS(=O)(=O)c2cccs2)n1` gave a melting point of 114 to 120 °C.

As for `CS(=O)(=O)c1ccc(-c2cccn2-c2ccc(Cl)cc2)cc1`, the melting point fell in the range of 184 to 188 °C.

The molecule `CCc1nc2c(C)cc(C)nc2n1Cc1ccc(C(=C(c2nnn[nH]2)S(C)=O)c2ccccc2)cc1` (stereo not drawn) gave a melting point of 141 to 144 °C.

Regarding `O=C(CCl)NCC1OCCO1`, the melting point lay in the range of 61 to 63 °C.

Molecule `CC[C@@H](C(N)=O)n1nnc2cc(Br)ccc21` had a melting point of 205 to 207 °C.

Turning to `COc1cc2c(cc1Br)C(=CNc1ccc(CN3CCCCC3)cc1)C(=O)NC2=O`, the melting point is 264 to 267 °C.

`CCOc1ccc2c(c1)C(=O)OC2C(Cl)(Cl)Cl` (stereo not drawn) registered a melting point of 112 to 114 °C.

`O=C(O)C(=NO)C(c1ccc(OCc2ccc3ccccc3n2)cc1)c1ccc(OCc2ccc3ccccc3n2)cc1`: the melting point is 183 to 185 °C.

`O=C(Cc1cccc(O)c1)NNC(=O)c1c(OCc2ccccc2)cc(OCc2ccccc2)cc1OCc1ccccc1` had a melting point of 154 to 155 °C.

In turn, `COCCCCCCCCCCCc1nnn[nH]1` yielded a melting point of 66.3 to 68.3 °C.

In turn, `Nc1nc(O)c2c(n1)NCC(CCc1nc(C(=O)N[C@@H](CCC(=O)O)C(=O)O)cs1)C2` (stereo partly drawn) gave a melting point of 210 to 212 °C.

As for `COc1ccc(C(=O)c2cc(C(=O)c3ccc(OC)cc3)cc(C(=O)c3ccc(OC)cc3)c2)cc1`, the melting point was 179 to 183 °C.

Molecule `Oc1cccc(SCCCSc2ccc(Cl)cc2)c1` returned a melting point of 102 °C.

`Cc1nc(-n2ccc(OCc3ccc(OC(F)F)cc3)cc2=O)sc1C(=O)NCc1ccc(F)cc1` returned a melting point of 242 to 244 °C.

Molecule `CCCCc1nc2c(N)nc3cc(-c4ccsc4)ccc3c2n1CC(C)C` yielded a melting point of 229 to 230 °C.

`CCOCc1nc2c(N)nc3cccnc3c2n1CCCC(=O)N1CCOCC1`: the melting point lay within 156 to 157 °C.

As to `COc1cc(C2(C)C(=O)Nc3ccccc3C2=O)ccc1O` (stereo not drawn), the melting point was in the range of 168 to 169 °C.

In the case of `N#Cc1cnc2sc(C(=O)O)cc2c1Nc1ccc2[nH]ccc2c1`, the melting point was above 250 °C.

For `CCOC(=O)C=Cc1cccc(C(=O)c2ccc(OC)cc2)c1`, the melting point lay within 71 to 71.5 °C.

`COc1ccc(C(=O)COc2ccc(C(=O)OCc3ccccc3)c(O)c2)cc1C12CC3CC(CC(C3)C1)C2` yielded a melting point of 129 °C.

As for `CCCc1nc2c(N)nc3cc(-c4ccccc4C(N)=O)ccc3c2s1`, the melting point lay in the range of 274 to 276 °C.

In turn, `CSC1C(=O)Nc2ccc(Oc3ccc(Cl)cc3)cc21` (stereo not drawn) gave a melting point of 166 to 169 °C.

Molecule `FCc1ccc(-c2cn([C@H]3CN4CCC3CC4)nn2)cc1` displayed a melting point of 138 °C.

`C=CCCC(C#N)(C#N)Cc1ccc(C#N)cc1` had a melting point of 109 °C.

With `Cc1ccc(NC2=C(Cl)C(=O)c3ccccc3C2=O)nc1`, the melting point was 260 to 261 °C.

Regarding `CC(N=Cc1ccc(O)cc1)c1ccc([N+](=O)[O-])cc1` (single isomer, unassigned; (-)), the melting point is 118 to 120 °C.

`Cc1ccc(Cl)cc1N1C(=O)CN(C)C1=S`: the melting point fell in the range of 132 to 134 °C.

With `Oc1cc2cc(C3CCCCC3)sc2c(Cl)c1Cl`, the melting point fell in the range of 59 to 60 °C.

`COC(=O)NC12CC=CCC1CSc1ccccc12` (stereo not drawn) yielded a melting point of 150 to 152 °C.

`O=C(C[C@H](NC(=O)c1ccccc1)C(=O)O)c1ccc2oc3ccccc3c2c1` came in with a melting point of 124 to 130 °C.

On to `COC(=O)CCC(CCCCNS(=O)(=O)c1ccc(Cl)cc1)CCOc1cccnc1` (stereo not drawn), for which the melting point lay in the range of 57 to 58 °C.

`C[C@H](NC(=O)OC(C)(C)C)C(=O)OCCCNc1cccc2c1C(=O)c1ccccc1C2=O` had a melting point of 58 °C.

`CCN(c1nc(C)cc(C(C)Cn2cnnn2)n1)c1ccc(C(C)C)cc1Br` (stereo not drawn) registered a melting point of 127 to 129 °C.

Turning to `COc1ccc(N2CCN(n3ccnc3)CC2)cc1`, the melting point turned out to be 159 °C.

For the molecule `CCCCCCCCCC(=O)Nc1ccc(S(=O)(=O)Nc2nnc(CC(=O)O)s2)cc1`, the melting point was 190 to 191 °C.

Molecule `CC(=O)N(C(C)=O)c1cc2c(cc1C)N(C(C)=O)c1ccc(N(C)C)cc1N2C(C)=O` returned a melting point of 231 to 234 °C.

Turning to `CC(C)n1nc(-c2c(NCCO)nc(N)nc2-c2ccccc2)ccc1=O`, the melting point was 222 to 224 °C.

The molecule `CC(C)(C)OC(=O)C(Br)=CC1C(C(=O)O)C1(C)C` (stereo not drawn) registered a melting point of 76 °C.

Regarding `CN1C(=O)c2ccccc2C[C@H]1C(=O)O`, the melting point was in the range of 173 to 175 °C.

`CCCCNc1nc(N)nc2c1ncn2C1C=CC(CO)C1` (stereo not drawn) came in with a melting point of 116 to 118 °C.

`CCc1nc(C(=O)c2ccc(Cl)cc2Cl)c(C(C)O)n1C(CC)CC` (stereo not drawn) gave a melting point of 125 to 126 °C.

For the molecule `CC(=O)N1CCc2cc(O)c(C(F)(F)F)cc21`, the melting point was 244 to 247 °C.

`COc1ccc(-c2c3c(cc4ccc5c(c24)OCO5)C(=O)NC3=O)cc1` yielded a melting point of 311 to 313 °C.

For the molecule `CCOC(=O)c1ccc(C(=O)Nc2ccc3c(c2)N(C)C(=O)CCC3(C)C)cc1`, the melting point lay within 174 to 175 °C.

As to `OCc1cn(-c2ccc(Cl)cn2)cn1`, the melting point was 82 to 87 °C.

With `O=C(NN=Cc1cccc2ccccc12)c1cc2ccccc2cc1O`, the melting point is 214 °C.

Regarding `Cn1cncc1C(O)(c1ccc(Cl)cc1)c1cc2nnn3c(=O)cc(-c4cccc(Cl)c4)c(c1)c23` (stereo not drawn), the melting point came to 226 °C.

`COCCOc1ccc(/C=C/c2cc(/C=C/c3ccc4cc[nH]c4c3)n[nH]2)c(OC)c1` returned a melting point of 90 to 96 °C.

On to `COc1ccc(CSCC(NC(=O)c2ccccc2)C(=O)NC(C)(C)c2ccccc2)cc1` (stereo not drawn), for which the melting point worked out at 189 °C.

In turn, `COC(=O)c1cc2cc(OC)ccc2cc1O` yielded a melting point of 129 to 131 °C.

Regarding `O=c1cc[nH]c2nc(-c3ccncc3)ncc12`, the melting point is above 350 °C.

Take `COC=C(C(=O)OC)c1ccccc1C=Cc1cscn1`: the melting point was found to be 117 °C.

Turning to `CCCN=C1SC(=CC(=O)O)C(=O)N1CCC`, the melting point was in the range of 101 to 103 °C.

In turn, `COc1cc(I)c(O)c(C=O)c1` displayed a melting point of 103 to 105 °C.

In turn, `CCCN(c1nc(-c2ccc(OC)cc2Cl)c(C)s1)c1cc(C(=O)O)ccc1OC` had a melting point of 109 °C.

With `N#CC(CCc1ccc(Cl)cc1)(c1ccccc1)c1cccnc1` (stereo not drawn), the melting point was 83 to 84 °C.

On to `Cc1cn2c(n1)Cc1cc3c(cc1C(c1ccc(N)cc1)=N2)OCO3`, for which the melting point was 165 to 166 °C.

`O=C(O)CCCCCCNC(=O)C(CS)Cc1ccccc1` (stereo not drawn): the melting point was in the range of 71 to 73 °C.

Turning to `O=C(O)c1ccc(C=CC=CC(=O)c2ccccc2)cc1`, the melting point lay in the range of 210 to 214 °C.

For the molecule `CCOC(=O)c1cnoc1-c1cccc(Cl)c1`, the melting point was in the range of 75 to 77 °C.

Molecule `Nc1ccc(C2=NNC(=O)Cc3cc4c(cc32)OCO4)cc1` returned a melting point of 242 to 244 °C.

In turn, `CC(C)(CCl)C(=O)C(Oc1ccc(-c2ccc(Cl)cc2)cc1)n1ccnc1` (stereo not drawn) displayed a melting point of 97 to 99 °C.

`COc1cc(C)c(OC)cc1C`: the melting point lay within 108 to 110 °C.

`COc1ccc(Cl)c(Oc2c(Cl)ncnc2Cl)c1`: the melting point fell in the range of 88 to 89 °C.

The molecule `O=[N+]([O-])c1ccc(OC2OC(CO)C(O)C(OCc3ccccc3)C2O)cc1` (stereo not drawn) gave a melting point of 127 °C.

The molecule `COc1cc2[nH]c3cc(OC)c(OC)cc3c2cc1OC` showed a melting point of 232 to 233 °C.

With `O=C(NO)c1ccc(CNC(=O)c2[nH]c(-c3ccc(O)cc3)cc2-c2ccoc2)cc1`, the melting point is 122 to 123 °C.

`COc1cc2c(cc1OC)S(=O)(=O)CCC(C(=O)N1CCN(C(=O)c3cc(OC)c(OC)c(OC)c3)CC1)=C2` displayed a melting point of 226 to 229 °C.

Consider `COc1ccc(/C=C/c2nc3c([nH]2)c(=O)n(C)c(=O)n3C)c(OC)c1OC`, for which the melting point lay within 265 to 266 °C.

On to `CCc1nn(-c2cc(NC(=O)c3ccccc3)ccc2Cl)c(=O)n1Cc1ccc(-c2ccccc2S(=O)(=O)NC(=O)OC(C)(C)C)cc1F`, for which the melting point was 79 to 81 °C.

Molecule `CN1CCN(c2cc(=O)c3ccc4ccccc4c3o2)CC1` yielded a melting point of 184 to 185 °C.

`N#Cc1c2c(c3c(c1N1CCCCC1)Cc1ccccc1-3)Cc1ccccc1-2` registered a melting point of 186 to 188 °C.

In turn, `CCCCNS(=O)(=O)C[C@@H](O)C(O)[C@@H](CC1CCCCC1)NC(=O)[C@H](CC(C)C)NC(=O)OCc1ccccc1` (relative stereo) gave a melting point of 50 to 70 °C.

Molecule `N#CC=C1c2ccccc2C=Cc2ccccc21` displayed a melting point of 137 to 138 °C.

The molecule `CC(C)(C)OC(=O)Nc1ccc(-c2ccccc2F)cc1NC(=O)CC(=O)c1cccc([N+](=O)[O-])c1` gave a melting point of 167 °C.

`O=C(O)c1ccccc1Nc1ccc(CCCc2ccc([N+](=O)[O-])cc2)cc1` returned a melting point of 150 to 153 °C.

On to `CCCCc1nc2c(N)nc3cccnc3c2n1CCNC(=O)C1CCC(=O)O1` (stereo not drawn), for which the melting point fell in the range of 153 to 154 °C.

`Cn1cc(S(C)=O)c(=O)c2sc(-c3cccc(Cl)c3)cc21` (stereo not drawn) gave a melting point of 249 to 251 °C.

`CC1(C)N=C(n2nc(O)ccc2=O)c2cc(Br)ccc2O1` registered a melting point of 196 to 198 °C.

The values are drawn from a melting point compilation (Tetko et al.; mined from patent text by program, amines drawn as free bases though some values may be those of a salt).
